Data taken from patent US12569454B2, “Nucleophilic chemicals useful in the treatment of cisplatin-induced sensory neuropathy and ototoxicity” (MONTEFIORE MEDICAL CENTER, priority 2018, dated 2026).

Assays:
mouse = test: Mouse studies: open field, balance beam, functional observational battery, treadmill; type: in vivo; conditions: open field observations, treadmill analysis
[1] = 400-600 mg/kg per day for 60 days; cited from earlier work
[2] = acute animal toxicity; cited from earlier work
neuroblastoma (SH-SY5) = test: CisPt-induced cancer cell lethality; type: cell-based
[3] = tested on: isolated mouse hepatocytes; test: Lethality of pre-formed enol-Pt complexes and Pt drugs; conditions: 4 hours exposure
Experimental: (§1) DRG cells and isolated mouse hepatocytes were then exposed to enol-Pt complexes for 4 hours and the respective changes in lethality were determined.

DRG cells = test: as above; conditions: 4 hours exposure
Experimental: as §1

osteosarcoma (HOS) = test: CisPt-induced cancer cell lethality; type: cell-based; conditions: for effect on ability of CisPt to kill cancer cells (IC75): co-incubated with graded CisPt, FIG. 5C
glioblastoma (U87 MG) = test: CisPt-induced cancer cell lethality; type: cell-based
[4] = tested on: freshly isolated mouse hepatocytes; test: CisPt effect on cell viability with or without protectant; type: cell-based; conditions: co-administration with CisPt, FIG. 3B
Source text: (§2) The enol compounds investigated in this study were gavinol, NAHA, and THA and as a point of comparison, the protective properties of thiol-based compounds, N-acetyl-L-cysteine (NAC) and sodium thiosulfate (STS), were also investigated.

neonatal rat DRG cells = test: as above; type: cell-based; conditions: co-administration with CisPt, FIG. 3A
Source text: as §2

[5] = pKa of nucleophilic carbon atoms; type: physicochemical
[6] = complexes pre-incubated 30 mins

Row | Compound | toxicity in mouse studies (mouse) | protection against CisPt toxicity [4] | protection against CisPt toxicity (neonatal rat DRG cells) | effect on ability of CisPt to kill cancer cells (IC75) (osteosarcoma (HOS)) | further results
1 | CC(=O)C1CCCC1=O (centres unmarked) [2-ACP, 2-acetylcyclopentanone] | not toxic |  |  |  | systemic toxicity [1]: low incidence of systemic toxicity; LD50 [2]: > 800 mg/kg
2 | N.N.O=C([O-])C1(C(=O)[O-])CCC1.[Pt+2] [CarboPt, carboplatin] |  |  |  |  | cancer cell lethality (neuroblastoma (SH-SY5); FIG. 6C, compared with CisPt): reduced cancer cell lethality; cytotoxicity relative to that caused by CisPt or OxaliPt [3]: intermediate cytotoxicity; cytotoxicity (lethality) [3, 6]: substantial concentration-dependent DRG and hepatocyte lethality; cytotoxicity relative to that caused by CisPt or OxaliPt (DRG cells): intermediate cytotoxicity; cytotoxicity (lethality) (DRG cells; [6]): substantial concentration-dependent DRG and hepatocyte lethality; cancer cell lethality (osteosarcoma (HOS); FIG. 6B, compared with CisPt): reduced cancer cell lethality; cancer cell lethality (glioblastoma (U87 MG); FIG. 6A, compared with CisPt): reduced cancer cell lethality
3 | CC(=O)N[C@@H](CS)C(=O)O [NAC, N-acetyl-L-cysteine, reference compound] |  | only modest protection | only modest protection |  | 
4 | CC(=O)Nc1cc(O)c(C(C)=O)c(O)c1 [NAHA, 4-N-acetyl-2,6-dihydroxyacetaphenone] | not toxic | substantial cryoprotection | substantial cryoprotection | significantly lowered the respective IC75S | pKa [5]: 7.9
5 | O=S([O-])([O-])=S.[Na+].[Na+] [STS, sodium thiosulfate, reference compound] |  | only modest protection | only modest protection | did not modify CisPt-induced cancer cell toxicity | effect on ability of CisPt to kill cancer cells (IC75) (neuroblastoma (SH-SY5); co-incubated with graded CisPt, FIG. 5A): did not modify CisPt-induced cancer cell toxicity; effect on ability of CisPt to kill cancer cells (IC75) (glioblastoma (U87 MG); co-incubated with graded CisPt, FIG. 5B): did not modify CisPt-induced cancer cell toxicity
6 | CC(=O)c1c(O)cc(O)cc1O [THA, 2′,4′,6′-trihydroxyacetophenone] | not toxic | substantial cryoprotection | substantial cryoprotection |  | 
7 | CC(=O)c1c(O)cc(NC(=O)C2CCCC2=O)cc1O (centres unmarked) [gavinol, N-(4-acetyl-3,5-dihydroxyphenyl)-2-oxocyclopentane-1-carboxamide] | not toxic | substantial cryoprotection | substantial cryoprotection | significantly lowered the respective IC75S | 
